In US20020086278A1, “CHROMOGENIC MEDIA CONTAINING BLOOD OR HEMIN” (priority 1999, published 2002):
Like-named read-outs stand apart in the source and are kept apart here.

Tests used:
Assay type in all cases: cell-based
55 strains = experiment: Example 3: color, hemolytic activity and growth over all 55 strains; settings: some strains
From the text: Steers, E. et al., Antibiot.

[1] = test system: Pseudomonas aeruginosa (psae); experiment: Example 3: colony color on chromogenic TSA II with 5% sheep blood (chromogen in medium); settings: CO2, 21 h
[2] = test system: Staphylococcus Coag Neg (step); experiment: as above; settings: 21 h
[3] = test system: Staphylococcus aureus (stau); experiment: as above
E. faecium (enfu) = experiment: as above; settings: enfu 49032, 21 h
cakr 34135 = experiment: as above; settings: CO2, 21 h
[4] = test system: Streptococcus agalactiae (stag); experiment: as above
S. pneumoniae (stpn) = experiment: as above
[5] = test system: Klebsiella pneumoniae (klpn); experiment: as above
Candida albicans (caal) = experiment: as above; settings: caal 10231, 24 h
S. milleri (stmi) = experiment: as above; settings: stmi 6249, 21 h
[6] = test system: E. coli (non-O157) (esco)
[7] = test system: Aeromonas hydrophilia (aehy); experiment: Example 3: colony color on chromogenic TSA II with 5% sheep blood (chromogen in medium); settings: CO2, 21 h
S pyogenes (stpy) = experiment: as above; settings: 21 h
Salmonella spp. (sasp) = settings: CO2, 21 h
milu 9341 = experiment: Example 3: colony color on chromogenic TSA II with 5% sheep blood (chromogen in medium); settings: CO2, 21 h
[8] = test system: Serratia marcescens (sema); experiment: as above; settings: sema 13880; CO2; 21 h
[9] = test system: Branhamella catarrhalis (brca); experiment: as above; settings: CO2, 21 h
[10] = test system: Entercoccus faecalis (enfa); experiment: as above
[11] = test system: Citrobacter freundii (cifr); experiment: as above; settings: CO2, 21 h

CC(C)S[C@@H]1O[C@H](CO)[C@H](O)[C@H](O)[C@H]1O [IPTG, Isopropyl-β-D-thiogalactopyranoside]
Effect on reactivity with X-gal (55 strains): reduce the reactivity

NC1CCCCC1.O=C(O)[C@H]1O[C@@H](Oc2c[nH]c3cc(Cl)ccc23)[C@H](O)[C@@H](O)[C@@H]1O [Sal-Glucuro, 6-Cl-3-indolyl-β-D-glucuronide (CHA salt)]
Colony Color ([1]; psae 9027): 0 | Colony Color ([1]; psae 15442): 0 | Colony Color ([1]; psae 33607): 0 | Colony Color ([2]; step 12228, CO2): 0 | Colony Color ([2]; step 12228, air): 0 | Colony Color ([2]; step cdc1, CO2): 0 | Colony Color ([2]; step cdc1, air): 0 | Colony Color ([2]; step cdc2, CO2): 0 | Colony Color ([2]; step cdc2, air): 0 | Colony Color ([2]; step cdc3, CO2): 0 | Colony Color ([2]; step cdc3, air): 0 | Colony Color ([2]; step cdc4, CO2): 0 | Colony Color ([2]; step cdc4, air): 0 | Colony Color ([3]; stau 1006, CO2, 21 h): 0 | Colony Color ([3]; stau 1007, CO2, 21 h): 0 | Colony Color ([3]; stau 1008, CO2, 21 h): 0 | Colony Color ([3]; stau 1009, CO2, 21 h): 0 | Colony Color ([3]; stau 25923, CO2, 24 h): 0 | Colony Color ([3]; stau 25923, air, 24 h): 0 | Colony Color (E. faecium (enfu); CO2): 0 | Colony Color (E. faecium (enfu); air): 0 | Colony Color (cakr 34135): 0 | Colony Color ([4]; stag 4768, CO2, 21 h): 0 | Colony Color ([4]; stag 4768, air, 21 h): 0 | Colony Color ([4]; stag 12386, CO2, 21 h): 0 | Colony Color ([4]; stag 12386, CO2, 24 h): gp | Colony Color ([4]; stag 12386, air, 24 h): gp | Colony Color (S. pneumoniae (stpn); stpn 1259, CO2, 21 h): 0 | Colony Color (S. pneumoniae (stpn); stpn 1260, CO2, 21 h): 0 | Colony Color (S. pneumoniae (stpn); stpn 1628, CO2, 21 h): 0 | Colony Color (S. pneumoniae (stpn); stpn 6303, CO2, 24 h): 0 | Colony Color (S. pneumoniae (stpn); stpn 6303, air, 24 h): 0 | Colony Color (S. pneumoniae (stpn); stpn 6305, CO2, 24 h): 0 | Colony Color (S. pneumoniae (stpn); stpn 6305, air, 24 h): 0 | Colony Color ([5]; klpn 13883, CO2, 21 h): 0 | Colony Color ([5]; klpn 33495, CO2, 24 h): 0 | Colony Color ([5]; klpn 33495, air, 24 h): 0 | Colony Color ([5]; klpn 33606, CO2, 21 h): 0 | Colony Color (Candida albicans (caal); CO2): 0 | Colony Color (Candida albicans (caal); air): 0 | Colony Color (S. milleri (stmi); CO2): 0 | Colony Color (S. milleri (stmi); air): 0 | Colony Color ([6]; esco 11775, CO2, 21 h): 0 | Colony Color ([6]; esco 25922, CO2, 24 h): 0 | Colony Color ([6]; esco 25922, air, 24 h): 0 | Colony Color ([6]; esco 33605, CO2, 21 h): 0 | Colony Color ([7]; aehy 7965): 0 | Colony Color ([7]; aehy 7966): 0 | Colony Color ([7]; aehy 49847): 0 | Colony Color (S pyogenes (stpy); stpy 1027, CO2): 0 | Colony Color (S pyogenes (stpy); stpy 1028, CO2): 0 | Colony Color (S pyogenes (stpy); stpy 1029, CO2): 0 | Colony Color (S pyogenes (stpy); stpy 1030, CO2): 0 | Colony Color (S pyogenes (stpy); stpy 19615, CO2): 0 | Colony Color (S pyogenes (stpy); stpy 19615, air): 0 | Colony Color (S pyogenes (stpy); stpy 49117, CO2): 0 | Colony Color (S pyogenes (stpy); stpy 49117, air): 0 | Colony Color (S pyogenes (stpy); stpy 51339, CO2): 0 | Colony Color (S pyogenes (stpy); stpy 51339, air): 0 | Colony Color (Salmonella spp. (sasp); saty 19430): 0 | Colony Color (Salmonella spp. (sasp); satym 14028): 0 | Colony Color (milu 9341): 0 | Colony Color [8]: 0 | Colony Color ([9]; brca 25238): 0 | Colony Color ([9]; brca 25240): 0 | Colony Color ([10]; enfa 597, CO2, 21 h): 0 | Colony Color ([10]; enfa 597, air, 21 h): 0 | Colony Color ([10]; enfa 10741, CO2, 21 h): 0 | Colony Color ([10]; enfa 10741, air, 21 h): 0 | Colony Color ([10]; enfa 12953, CO2, 21 h): 0 | Colony Color ([10]; enfa 12953, air, 21 h): 0 | Colony Color ([10]; enfa 14506, CO2, 21 h): 0 | Colony Color ([10]; enfa 14506, air, 21 h): 0 | Colony Color ([10]; enfa 29212, CO2, 21 h): 0 | Colony Color ([10]; enfa 29212, CO2, 24 h): 0 | Colony Color ([10]; enfa 29212, air, 21 h): 0 | Colony Color ([10]; enfa 29212, air, 24 h): 0 | Colony Color ([11]; cifr 8454): 0 | Colony Color ([11]; cifr 33128): 0
